Results on 21 compounds are retold here after patent US20240173311A1, “METHODS AND COMPOSITIONS FOR MODULATING FGF ACTIVITY” (Recovery Therapeutics, Inc., priority 2021, published 2024).

For orientation: ΔTm means the change in melting temperature against a reference sample.

Read-outs that look alike come from different tables or passages of the source.

Experiment [1] addresses T1, FGFR1 in recombinant human FGFR1/FGF2 complex (Homo sapiens, UniProt P11362).
T1 construct: made in house; host or cells: Escherichia coli BL21 (DE3) Star
Put plainly: Thermal shift assay (TSA), ΔTm of FGFR1 peak. It is filed as binding. The following applies: for ΔTm at 100 µM / ΔTm at 10 µM / ΔTm at 25 µM: read-out: ΔTm (° C.) −FGFR1; for ΔTm at 50 µM: 50 μM compound; for ΔTm at 2 µM: 2 μM compound. The procedure: (§1) TSA was utilized to biophysically characterize the recombinant human FGFR1/FGF2 complex in the presence or absence of selected compounds of formula (I), Compounds 1, 2a-2f, 20, 5, 60, and 8-13. Compound 1 was prepared according to the procedures described in Example 1, and the other compounds were obtained from commercial sources. The assay functions by protein denaturation over a temperature gradient. During protein unfolding, exposed hydrophobic regions bind a dye and fluoresce due to solvent relaxation effects. Changes in the melting temperature of the protein complex in the presence of each compound were monitored and compounds were screened/ranked using this method.
(§2) Thawed aliquots of purified FGF2 (1.0 mg/mL) and FGFR1 (1.6 mg/mL) proteins were mixed in a 1:1 molar ratio ([…]) on ice for 30 min at 4° C. and plated prior to the thermal shift assay (TSA).
(§3) Complex formation was verified by loading the complexed material on a size exclusion column (superdex 10 300GL S200) and observing the monodisperse peak corresponding to the FGF2/FGFR1 complex (˜ 40 kDa). Compounds described herein were screened in dose response format (0-100 μM) with the FGF2/FGFR1 complex in triplicates. FGF2/ FGFR1/compound complexes were mixed in a 1000:1 ratio with Sypro Orange dye (Sigma-Aldrich). The samples were processed using a Bio-Rad CFX C96 Touch quantitative polymerase chain reaction and run using the FRET assay settings with a heating ramp of 0.3° C./s cycling from 4 to 100° C. Data analysis was performed using the Bio-Rad CFX Manager Software (version 3.1, Bio-Rad) and changes in the melting temperature (Tm) of the complex in the presence of each compound were monitored. The results are shown in Table 9 below and also in FIG. 1 (for Compound 10).

The target of experiment [2] is T2, FGF2 in recombinant human FGFR1/FGF2 complex (Homo sapiens, UniProt P09038).
T2 construct: made in house; host or cells: Escherichia coli BL21 (DE3) Star
Put plainly: Thermal shift assay (TSA), ΔTm of FGF2 peak. It is filed as binding. The following applies: for ΔTm at 100 µM / ΔTm at 10 µM / ΔTm at 25 µM: read-out: ΔTm (° C.) −FGF2; for ΔTm at 50 µM: 50 μM compound; for ΔTm at 2 µM: 2 μM compound. The method, then: as §1, §2, §3

T2 sequence (P09038 156-288 limits assumed): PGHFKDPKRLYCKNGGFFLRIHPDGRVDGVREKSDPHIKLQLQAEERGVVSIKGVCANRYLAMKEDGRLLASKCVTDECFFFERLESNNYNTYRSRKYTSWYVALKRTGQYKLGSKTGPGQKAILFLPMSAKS
T2 sequence (P11362 142-365 partner limits assumed): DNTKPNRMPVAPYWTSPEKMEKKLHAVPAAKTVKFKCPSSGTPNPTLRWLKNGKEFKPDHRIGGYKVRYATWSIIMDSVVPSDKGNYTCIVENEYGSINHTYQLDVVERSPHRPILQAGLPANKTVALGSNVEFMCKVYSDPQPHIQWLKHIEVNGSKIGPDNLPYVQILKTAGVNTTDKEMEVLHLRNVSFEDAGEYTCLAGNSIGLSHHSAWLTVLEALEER
T1 sequence (P11362 142-365 limits assumed): as the sequence (P11362 142-365 partner limits assumed) above
T1 sequence (P09038 156-288 partner limits assumed): as the sequence (P09038 156-288 limits assumed) above

Take `O=Cc1ccccc1` [Compound 1a]: the figures for the ΔTm at 100 µM in experiment [1] and in experiment [2] were 0.5 °C and 0 °C, respectively.

On to `O=Cc1ccc(F)cc1` [Compound 1b], for which the figures for the ΔTm at 100 µM in experiment [1] (100 μM compound) and in experiment [2] (100 μM compound) were 0 °C and 1 °C, respectively.

Turning to `O=Cc1ccc(Cl)cc1` [Compound 1c], the ΔTm at 10 µM in experiment [1] is -2.2 °C; in experiment [2], 2 °C.

Regarding `O=Cc1ccc(Br)cc1` [Compound 1d], the thermal shift (ΔTm) at 25 µM in experiment [1] was -2.1 °C; in experiment [2], 1.6 °C.

As for `O=Cc1ccccc1F` [Compound 1e], the shift in melting temperature (ΔTm) at 100 µM is 0 °C in experiment [1] (100 μM compound) and 0.3 °C in experiment [2] (100 μM compound).

`O=Cc1cccc(F)c1` [Compound 1f, 3-fluorobenzaldehyde]: the shift in melting temperature (ΔTm) at 50 µM was 4 °C in experiment [1] and -0.4 °C in experiment [2].

As to `CCN(CC)c1ccc(C=O)cc1` [Compound 1o, 4-diethylaminobenzaldehyde], the ΔTm at 25 µM is 5 °C in experiment [1] and -2 °C in experiment [2].

With `CCN(CC)c1ccc(/C=N/c2ccccc2)cc1` [Compound 4on], the ΔTm at 25 µM is 1.5 °C in experiment [1] (25 μM compound) and -0.5 °C in experiment [2] (25 μM compound).

`CCN(CC)c1ccc(/C=N/Cc2ccccc2)cc1` [Compound 4ow, (E)-4-((benzylimino)methyl)-N,N-diethylaniline]: the ΔTm at 25 µM in experiment [1] (25 μM compound) was 4 °C; in experiment [2] (25 μM compound), -2 °C.

Regarding `CCN(CC)c1ccc(/C=N/O)cc1` [Compound 5o], the shift in melting temperature (ΔTm) at 2 µM is 3.5 °C in experiment [1] and -1 °C in experiment [2].

For `CCN(CC)c1ccc(C(O)c2cccc(OC(F)(F)F)c2)cc1` (stereo not drawn) [Compound 8om, (4-(diethylamino)phenyl)(3-(trifluoromethoxy)phenyl)methano], the “ΔTm (° C.) −FGFR1” value in experiment [1] (10 μM compound) is “+0.3 °C”. In addition, in experiment [2] (10 μM compound), the “ΔTm (° C.) −FGF2” value turned out to be 0 °C.

As to `O=C(c1ccccc1)c1cccc(F)c1` [Compound 9af], the results for the ΔTm at 10 µM in experiment [1] (10 μM compound) and in experiment [2] (10 μM compound) were 9.8 °C and -6 °C, respectively.

Regarding `CCN(CC)c1ccc(C(=O)c2ccccc2)cc1` [Compound 9oa], the shift in melting temperature (ΔTm) at 10 µM was 6 °C in experiment [1] (10 μM compound) and -0.3 °C in experiment [2] (10 μM compound).

For the compound `CCN(CC)c1ccc(/C=N/N=C/c2ccc(N(CC)CC)cc2)cc1` [Compound 10o, 4,4′-((1E,1′E)-hydrazine-1,2-diylidenebis(methaneylylidene))bis(N,N-diethylaniline)], the ΔTm at 2 µM in experiment [1] was 11 °C; in experiment [2], -5.2 °C.

`CCN(CC)c1ccc(C2N[C@@H](C(=O)O)C(C)(C)S2)cc1` (stereo partly drawn) [Compound 11o, (4S)-2-(4-(diethylamino)phenyl)-5,5-dimethylthiazolidine-4-carboxylic acid]: the ΔTm at 50 µM in experiment [1] was 2 °C; in experiment [2], -4.2 °C.

Turning to `CCN(CC)c1ccc(/C=N/NC(=O)CN(C)C)cc1` [Compound 13oa, (E)-N′-(4-(diethylamino)benzylidene)-2-(dimethylamino)acetohydrazide], the ΔTm at 50 µM was 0 °C in experiment [1] and -2.1 °C in experiment [2].

For the compound `CCN(CC)c1ccc(/C=N/NC(=O)C2CCOCC2)cc1` [Compound 13ob, (E)-N′-(4-(diethylamino)benzylidene)tetrahydro-2H-pyran-4-carbohydrazide], the ΔTm at 25 µM in experiment [1] (25 μM compound) was 1.5 °C; in experiment [2] (25 μM compound) it was -2.7 °C.

Consider `CCN(CC)c1ccc(/C=N/NC(=O)c2ccc(O)cc2)cc1` [Compound 13oe], for which the thermal shift (ΔTm) at 10 µM is -1.5 °C in experiment [1] (10 μM compound) and -0.5 °C in experiment [2] (10 μM compound).

Turning to `CCN(CC)c1ccc(/C=N/NC(=O)C2CCN(CCO)CC2)cc1` [Compound 13oh, (E)-N′-(4-(diethylamino)benzylidene)-1-(2-hydroxyethyl)piperidine-4-carbohydrazide], the ΔTm at 10 µM in experiment [1] (10 μM compound) is 0.6 °C; in experiment [2] (10 μM compound) it was 0 °C.

For the compound `CCN(CC)c1ccc(/C=N/N2CCN(C(c3ccccc3)c3ccccc3)CC2)cc1` [Compound 15oa, (E)-4-(((4-benzhydrylpiperazin-1-yl)imino)methyl)-N,N-diethylaniline], the ΔTm at 100 µM in experiment [1] (100 μM compound) was 2 °C; in experiment [2] (100 μM compound), -1.5 °C.

Take `CCN(CC)c1ccc(/C=N/N(c2ccccc2)c2ccccc2)cc1` [Compound 15ob]: the ΔTm at 25 µM in experiment [1] (25 μM compound) was 0 °C; in experiment [2] (25 μM compound), -1 °C.
